From patent US20260201008A1, “SECRETIN-DERIVED GLP1R SELECTIVE AGONISTS” (GUBRA A/S, priority 2023, published 2026)
Like-named read-outs stand apart in the source and are kept apart here. Numbered stars: 1 amine (or outer) side, 2 acyl side, 3 side chain; on linkers, the order of the positions; unused ones are H or OH. Square brackets hold non-standard residues; d marks the D form. Side chains are listed from the residue outwards. Peptide text beside a SMILES is read from it. * marks the point of attachment. C18 diacid = O=C(O)CCCCCCCCCCCCCCCCC(=O)*; γGlu = O=C(O)[C@H](CCC(=O)[*:2])N[*:1]; AEEA = NCCOCCOCC(=O)O; Aib = CC(C)(N)C(=O)O

How the values were obtained:
SCTR = SCTR (Homo sapiens, UniProt P47872); assay: hSCTR potency, cAMP accumulation in CHO-K1 cells stably overexpressing hSCTR; type: cell-based; set-up: alternatively Euroscreen ES-712-AF; FAST-0161L; host or cells: CHO-K1; conditions: read-out: pEC50 hSCTR (converted)
Text: (§1) Crude library peptides are screened in 10-fold serial dilutions of 5 concentrations, n=1 time. Tip change is done for the first two serial dilutions. Compound starting concentration (top) will be adjusted throughout the study if needed.
(§2) Purified peptides are screened in 3-fold serial dilutions of 11 concentrations, n=2 times. Tip change is done for all serial dilutions. Compound starting concentration (top) will be adjusted throughout the study. If the top concentration is adjusted or a 5-fold difference in calculated EC50 values is observed, n is increased by 1. EC50 values were calculated by nonlinear regression using sigmoid concentration-response with variable slope.
(§3) Frozen division arrested CHO-K1 cells stably overexpressing the hSCTR were obtained from PerkinElmer (ES-712-AF). Alternatively, a CHO-K1 cell line stably overexpressing the hSCTR was obtained from Euroscreen (FAST-0161L), expanded, aliquoted and frozen. An aliquot was thawed and plated in DPBS with 0.05% casein and 0.5 mM IBMX as 2000 cells/well in a 384-well format. The cells were then immediately stimulated for 30 min at room temperature with graded doses of test compound using human secretin (synthesized at Gubra) as a positive control. cAMP accumulation was measured using a Cisbio assay for Gs coupled receptors (cat. no. 62AM4PEC), where the assay reagents were added as per the manufacturer's instructions and time-resolved fluorescence energy transfer recorded after one hour on a CLARIOstar (BMG Labtech) plate reader.

GLP1R = GLP1R (Homo sapiens, UniProt P43220); assay: hGLP1R potency, cAMP accumulation in CHO-K1 cells stably overexpressing hGLP1R; type: cell-based; set-up: host or cells: CHO-K1; conditions: for Selectivity: SCTR EC50/GLP1R EC50 ratio
Text: as §1, §2
as §3, with “A” for “Frozen division arrested CHO-K1 cells stably overexpressing the hSCTR were obtained from PerkinElmer (ES-712-AF). Alternatively, a”, “hGLP1R” for “hSCTR”, “(FAST-0145L),” for “(FAST-0161L),”, “GLP-1(7-36)” for “secretin”

[1] = Table 3, position X^10 variants of GUB06-046
[2] = Table 4, position X12 variants of GUB06-046
[3] = Table 4, position X12 variants of GUB06-046, read-out: pEC50 hGLPR1 (converted)
[4] = Table 2, extended 30 amino acid peptides

Chain of GLP1R (P43220 24-463): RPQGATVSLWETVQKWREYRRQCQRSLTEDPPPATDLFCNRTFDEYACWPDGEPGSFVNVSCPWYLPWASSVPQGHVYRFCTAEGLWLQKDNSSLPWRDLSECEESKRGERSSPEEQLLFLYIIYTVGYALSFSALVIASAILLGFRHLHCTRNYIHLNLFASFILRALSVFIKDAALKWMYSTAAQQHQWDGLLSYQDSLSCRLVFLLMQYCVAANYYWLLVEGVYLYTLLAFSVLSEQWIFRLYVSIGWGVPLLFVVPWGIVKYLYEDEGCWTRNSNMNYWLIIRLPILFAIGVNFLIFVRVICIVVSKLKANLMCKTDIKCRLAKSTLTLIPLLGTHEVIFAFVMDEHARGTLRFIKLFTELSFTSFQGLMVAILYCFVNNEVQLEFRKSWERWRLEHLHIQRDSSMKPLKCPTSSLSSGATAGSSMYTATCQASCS
Chain of SCTR (P47872 23-440): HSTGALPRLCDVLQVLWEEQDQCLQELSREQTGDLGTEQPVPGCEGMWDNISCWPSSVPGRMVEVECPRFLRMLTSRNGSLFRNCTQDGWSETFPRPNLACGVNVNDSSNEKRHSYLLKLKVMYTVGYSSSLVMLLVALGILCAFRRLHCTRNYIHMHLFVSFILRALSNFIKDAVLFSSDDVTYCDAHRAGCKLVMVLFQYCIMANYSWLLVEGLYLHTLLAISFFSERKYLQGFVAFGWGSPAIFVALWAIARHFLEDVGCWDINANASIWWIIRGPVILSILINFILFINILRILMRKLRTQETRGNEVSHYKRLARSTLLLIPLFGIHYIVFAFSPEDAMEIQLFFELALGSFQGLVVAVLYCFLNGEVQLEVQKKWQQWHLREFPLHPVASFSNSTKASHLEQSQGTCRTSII

EC50 (SCTR; [1]) [nM]	EC50 (SCTR; [2]) [nM]	Selectivity (GLP1R; [1])	Selectivity (GLP1R; [2])	EC50 (GLP1R; Table 3, position X^10 variants of GUB06-046, read-out: pEC50 hGLPR1 (converted)) [nM]	EC50 (GLP1R; [3]) [nM]	EC50 (SCTR; [4]) [nM]	Selectivity (GLP1R; [4])	EC50 (GLP1R; Table 2, extended 30 amino acid peptides, read-out: PEC50 hGLPR1 (converted)) [nM]	SMILES
0.501	0.501	13	13	0.0398	0.0398				CC[C@H](C)[C@H](NC(=O)[C@H](Cc1ccccc1)NC(=O)[C@H](CCCNC(=N)N)NC(=O)[C@H](CCC(N)=O)NC(=O)[C@H](CC(C)C)NC(=O)[C@H](C)NC(=O)[C@H](C)NC(=O)CNC(=O)[C@H](CCC(=O)O)NC(=O)[C@H](CC(C)C)NC(=O)[C@H](CC(C)C)NC(=O)[C@H](CCCNC(=N)N)NC(=O)[C@H](CO)NC(=O)[C@H](CC(C)C)NC(=O)[C@H](CC(=O)O)NC(=O)[C@H](CO)NC(=O)[C@@H](NC(=O)[C@H](Cc1ccccc1)NC(=O)[C@@H](NC(=O)CNC(=O)[C@H](CCC(=O)O)NC(=O)C(C)(C)NC(=O)[C@@H](N)Cc1c[nH]cn1)[C@@H](C)O)[C@@H](C)O)C(=O)N[C@@H](CCC(N)=O)C(=O)N[C@@H](Cc1c[nH]c2ccccc12)C(=O)N[C@@H](CC(C)C)C(=O)N[C@H](C(N)=O)C(C)C [compound 216] (H-H[Aib]EGTFTSDLSRLLEGAALQRFIQWLV-NH2)
	0.794		53		0.0158				CC[C@H](C)[C@H](NC(=O)[C@H](Cc1ccccc1)NC(=O)[C@H](CCCNC(=N)N)NC(=O)[C@H](CCC(N)=O)NC(=O)[C@H](CC(C)C)NC(=O)[C@H](C)NC(=O)[C@H](C)NC(=O)CNC(=O)[C@H](CCC(=O)O)NC(=O)[C@H](CC(C)C)NC(=O)[C@H](CC(C)C)NC(=O)[C@H](Cc1c[nH]c2ccccc12)NC(=O)[C@H](CO)NC(=O)[C@H](CC(C)C)NC(=O)[C@H](CC(=O)O)NC(=O)[C@H](CO)NC(=O)[C@@H](NC(=O)[C@H](Cc1ccccc1)NC(=O)[C@@H](NC(=O)CNC(=O)[C@H](CCC(=O)O)NC(=O)C(C)(C)NC(=O)[C@@H](N)Cc1c[nH]cn1)[C@@H](C)O)[C@@H](C)O)C(=O)N[C@@H](CCC(N)=O)C(=O)N[C@@H](Cc1c[nH]c2ccccc12)C(=O)N[C@@H](CC(C)C)C(=O)N[C@H](C(N)=O)C(C)C [compound 228] (H-H[Aib]EGTFTSDLSWLLEGAALQRFIQWLV-NH2)
	7.94		328		0.0251				CC[C@H](C)[C@H](NC(=O)[C@H](Cc1ccccc1)NC(=O)[C@H](CCCNC(=N)N)NC(=O)[C@H](CCC(N)=O)NC(=O)[C@H](CC(C)C)NC(=O)[C@H](C)NC(=O)[C@H](C)NC(=O)CNC(=O)[C@H](CCC(=O)O)NC(=O)[C@H](CC(C)C)NC(=O)[C@H](CC(C)C)NC(=O)[C@H](Cc1ccccc1)NC(=O)[C@H](CO)NC(=O)[C@H](CC(C)C)NC(=O)[C@H](CC(=O)O)NC(=O)[C@H](CO)NC(=O)[C@@H](NC(=O)[C@H](Cc1ccccc1)NC(=O)[C@@H](NC(=O)CNC(=O)[C@H](CCC(=O)O)NC(=O)C(C)(C)NC(=O)[C@@H](N)Cc1c[nH]cn1)[C@@H](C)O)[C@@H](C)O)C(=O)N[C@@H](CCC(N)=O)C(=O)N[C@@H](Cc1c[nH]c2ccccc12)C(=O)N[C@@H](CC(C)C)C(=O)N[C@H](C(N)=O)C(C)C [compound 225] (H-H[Aib]EGTFTSDLSFLLEGAALQRFIQWLV-NH2)
	5.01		145		0.0316				CC[C@H](C)[C@H](NC(=O)[C@H](Cc1ccccc1)NC(=O)[C@H](CCCNC(=N)N)NC(=O)[C@H](CCC(N)=O)NC(=O)[C@H](CC(C)C)NC(=O)[C@H](C)NC(=O)[C@H](C)NC(=O)CNC(=O)[C@H](CCC(=O)O)NC(=O)[C@H](CC(C)C)NC(=O)[C@H](CC(C)C)NC(=O)CNC(=O)[C@H](CO)NC(=O)[C@H](CC(C)C)NC(=O)[C@H](CC(=O)O)NC(=O)[C@H](CO)NC(=O)[C@@H](NC(=O)[C@H](Cc1ccccc1)NC(=O)[C@@H](NC(=O)CNC(=O)[C@H](CCC(=O)O)NC(=O)C(C)(C)NC(=O)[C@@H](N)Cc1c[nH]cn1)[C@@H](C)O)[C@@H](C)O)C(=O)N[C@@H](CCC(N)=O)C(=O)N[C@@H](Cc1c[nH]c2ccccc12)C(=O)N[C@@H](CC(C)C)C(=O)N[C@H](C(N)=O)C(C)C [compound 226] (H-H[Aib]EGTFTSDLSGLLEGAALQRFIQWLV-NH2)
	5.01		78		0.0631				CC[C@H](C)[C@H](NC(=O)[C@H](Cc1ccccc1)NC(=O)[C@H](CCCNC(=N)N)NC(=O)[C@H](CCC(N)=O)NC(=O)[C@H](CC(C)C)NC(=O)[C@H](C)NC(=O)[C@H](C)NC(=O)CNC(=O)[C@H](CCC(=O)O)NC(=O)[C@H](CC(C)C)NC(=O)[C@H](CC(C)C)NC(=O)C(C)(C)NC(=O)[C@H](CO)NC(=O)[C@H](CC(C)C)NC(=O)[C@H](CC(=O)O)NC(=O)[C@H](CO)NC(=O)[C@@H](NC(=O)[C@H](Cc1ccccc1)NC(=O)[C@@H](NC(=O)CNC(=O)[C@H](CCC(=O)O)NC(=O)C(C)(C)NC(=O)[C@@H](N)Cc1c[nH]cn1)[C@@H](C)O)[C@@H](C)O)C(=O)N[C@@H](CCC(N)=O)C(=O)N[C@@H](Cc1c[nH]c2ccccc12)C(=O)N[C@@H](CC(C)C)C(=O)N[C@H](C(N)=O)C(C)C [compound 223] (H-H[Aib]EGTFTSDLS[Aib]LLEGAALQRFIQWLV-NH2)
	10		699		0.0158				CC[C@H](C)[C@H](NC(=O)[C@H](Cc1ccccc1)NC(=O)[C@H](CCCNC(=N)N)NC(=O)[C@H](CCC(N)=O)NC(=O)[C@H](CC(C)C)NC(=O)[C@H](C)NC(=O)[C@H](C)NC(=O)CNC(=O)[C@H](CCC(=O)O)NC(=O)[C@H](CC(C)C)NC(=O)[C@H](CC(C)C)NC(=O)[C@H](Cc1ccc(O)cc1)NC(=O)[C@H](CO)NC(=O)[C@H](CC(C)C)NC(=O)[C@H](CC(=O)O)NC(=O)[C@H](CO)NC(=O)[C@@H](NC(=O)[C@H](Cc1ccccc1)NC(=O)[C@@H](NC(=O)CNC(=O)[C@H](CCC(=O)O)NC(=O)C(C)(C)NC(=O)[C@@H](N)Cc1c[nH]cn1)[C@@H](C)O)[C@@H](C)O)C(=O)N[C@@H](CCC(N)=O)C(=O)N[C@@H](Cc1c[nH]c2ccccc12)C(=O)N[C@@H](CC(C)C)C(=O)N[C@H](C(N)=O)C(C)C [compound 229] (H-H[Aib]EGTFTSDLSYLLEGAALQRFIQWLV-NH2)
						2510	285714	0.01	CC(C)C[C@H](NC(=O)[C@H](Cc1ccccc1)NC(=O)[C@H](CCCNC(=N)N)NC(=O)[C@H](CCC(N)=O)NC(=O)[C@H](CCC(=O)O)NC(=O)[C@H](C)NC(=O)[C@H](C)NC(=O)CNC(=O)[C@H](CCC(=O)O)NC(=O)[C@H](CCCCNC(=O)COCCOCCNC(=O)COCCOCCNC(=O)CC[C@H](NC(=O)CCCCCCCCCCCCCCCCC(=O)O)C(=O)O)NC(=O)[C@H](CC(C)C)NC(=O)[C@H](CCCNC(=N)N)NC(=O)[C@H](CO)NC(=O)[C@@H](NC(=O)[C@H](CC(=O)O)NC(=O)[C@H](CO)NC(=O)[C@@H](NC(=O)[C@H](Cc1ccccc1)NC(=O)[C@@H](NC(=O)CNC(=O)[C@H](CCC(=O)O)NC(=O)C(C)(C)NC(=O)[C@@H](N)Cc1c[nH]cn1)[C@@H](C)O)[C@@H](C)O)C(C)C)C(=O)N[C@@H](CCC(N)=O)C(=O)N[C@@H](Cc1c[nH]cn1)C(=O)N[C@@H](CC(C)C)C(=O)N[C@H](C(=O)N[C@@H](CCC(=O)O)C(=O)N[C@@H](C)C(=O)N[C@@H](CCC(=O)O)C(N)=O)C(C)C [compound 204] (H-H[Aib]EGTFTSDVSRLK([AEEA-AEEA-γGlu-C18 diacid])EGAAEQRFLQHLVEAE-NH2)
